Experiments:
Type in all cases: in vivo
[1] = system: Echinochloa crus-galli (ECHCG); experiment: Post-emergence test, herbicidal damage; settings: sprayed after 8 days cultivation, 1000 g/ha, evaluated after 13 days
Protocol: (§1) Seeds of a variety of test species are sown in standard soil in pots (Amaranthus retoflexus (AMARE), Echinochloa crus-galli (ECHCG), Amaranthus palmeri (AMAPA), Setaria faberi (SETFA), Zea mays (ZEAMX), Ipomoea hederacea (IPOHE)). After 8 days cultivation under controlled conditions in a glasshouse (at 24° C./16° C., day/night; 14 hours light; 65% humidity), the plants are sprayed with an aqueous spray solution derived from the formulation of the technical active ingredient in acetone/water (50:50) solution containing 0.5% Tween 20 (polyoxyethylene sorbitan monolaurate, CAS RN 9005-64-5). Compounds are applied at 1000 g/ha unless otherwise stated. The test plants are then grown in a glasshouse under controlled conditions in a glasshouse (at 24° C./16° C., day/night; 14 hours light; 65% humidity) and watered twice daily. After 13 days the test is evaluated for the percentage damage caused to the plant. The biological activities are shown in the following table on a five-point scale (5=81-100%; 4=61-80%; 3=41-60%; 2=21-40%; 1=10-20%; 0=0%; -=not tested).

Setaria faberi (SETFA) = experiment: Post-emergence test, herbicidal damage; settings: sprayed after 8 days cultivation, 1000 g/ha, evaluated after 13 days
Protocol: as §1

Zea mays (ZEAMX) [2] = experiment: Post-emergence test, herbicidal damage; settings: sprayed after 8 days cultivation, 1000 g/ha, evaluated after 13 days
Protocol: as §1

[3] = system: Ipomoea hederacea (IPOHE); experiment: Post-emergence test, herbicidal damage; settings: sprayed after 8 days cultivation, 1000 g/ha, evaluated after 13 days
Protocol: as §1

[4] = system: Amaranthus palmeri (AMAPA); experiment: Post-emergence test, herbicidal damage; settings: sprayed after 8 days cultivation, 1000 g/ha, evaluated after 13 days
Protocol: as §1

[5] = system: Amaranthus retoflexus (AMARE); experiment: Post-emergence test, herbicidal damage; settings: sprayed after 8 days cultivation, 1000 g/ha, evaluated after 13 days
Protocol: as §1

[6] = system: Amaranthus retoflexus (AMARE); experiment: Pre-emergence test, herbicidal damage; settings: 1000 g/ha, evaluated after 13 days
[7] = system: Amaranthus palmeri (AMAPA); experiment: Pre-emergence test, herbicidal damage; settings: 1000 g/ha, evaluated after 13 days
Zea mays (ZEAMX) [8] = experiment: Pre-emergence test, herbicidal damage; settings: 1000 g/ha, evaluated after 13 days
[9] = system: Echinochloa crus-galli (ECHCG); experiment: Pre-emergence test, herbicidal damage; settings: 1000 g/ha, evaluated after 13 days
[10] = system: Ipomoea hederacea (IPOHE); experiment: Pre-emergence test, herbicidal damage; settings: 1000 g/ha, evaluated after 13 days

CCOC(=O)c1nn(-c2ccnc(Cl)c2)c2cccc(Br)c2c1=O [Compound 3, ethyl 5-bromo-1-(2-chloro-4-pyridyl)-4-oxo-cinnoline-3-carboxylate]
percentage damage caused to the plant, ECHCG [1]: 2 (2=21-40%)
percentage damage caused to the plant, SETFA (Setaria faberi (SETFA)): 0 (0=0%)
percentage damage caused to the plant, ZEAMX (Zea mays (ZEAMX) [2]): 0 (0=0%)
percentage damage caused to the plant, IPOHE [3]: 0 (0=0%)
percentage damage caused to the plant, AMAPA [4]: 1 (1=10-20%)
percentage damage caused to the plant, AMARE [5]: 2 (2=21-40%)

CCOC(=O)c1nn(-c2cnc3c(c2)OC(F)(F)O3)c2cccc(Br)c2c1=O [Compound 24, ethyl 5-bromo-1-(2,2-difluoro-[1,3]dioxolo[4,5-b]pyridin-6-yl)-4-oxo-cinnoline-3-carboxylate]
percentage damage caused to the plant, ECHCG [1]: 2 (2=21-40%)
percentage damage caused to the plant, SETFA (Setaria faberi (SETFA)): 2 (2=21-40%)
percentage damage caused to the plant, ZEAMX (Zea mays (ZEAMX) [2]): 1 (1=10-20%)
percentage damage caused to the plant, IPOHE [3]: 0 (0=0%)
percentage damage caused to the plant, AMAPA [4]: 0 (0=0%)
percentage damage caused to the plant, AMARE [5]: 0 (0=0%)

CCOC(=O)c1nn(-c2ccc(OC(F)F)nc2)c2cccc(C(C)=O)c2c1=O [Compound 37, ethyl 5-acetyl-1-[6-(difluoromethoxy)-3-pyridyl]-4-oxo-cinnoline-3-carboxylate]
percentage damage caused to the plant, ECHCG [1]: 4 (4=61-80%)
percentage damage caused to the plant, SETFA (Setaria faberi (SETFA)): 1 (1=10-20%)
percentage damage caused to the plant, IPOHE [3]: 2 (2=21-40%)
percentage damage caused to the plant, AMAPA [4]: 0 (0=0%)
percentage damage caused to the plant, AMARE [5]: 1 (1=10-20%)
percentage damage caused to the plant, AMARE [6]: 0 (0=0%)
percentage damage caused to the plant, AMAPA [7]: 0 (0=0%)
percentage damage caused to the plant, ZEAMX (Zea mays (ZEAMX) [8]): 4 (4=61-80%)
percentage damage caused to the plant, ECHCG [9]: 4 (4=61-80%)
percentage damage caused to the plant, IPOHE [10]: 0 (0=0%)

CCOC(=O)c1nn(-c2ccc(OC(F)F)nc2)c2cccc(C#N)c2c1=O [Compound 35, ethyl 5-cyano-1-[6-(difluoromethoxy)-3-pyridyl]-4-oxo-cinnoline-3-carboxylate]
percentage damage caused to the plant, ECHCG [1]: 0 (0=0%)
percentage damage caused to the plant, SETFA (Setaria faberi (SETFA)): 0 (0=0%)
percentage damage caused to the plant, IPOHE [3]: 1 (1=10-20%)
percentage damage caused to the plant, AMAPA [4]: 1 (1=10-20%)
percentage damage caused to the plant, AMARE [5]: 1 (1=10-20%)

CCOC(=O)c1nn(-c2ccnc(OC(F)F)c2)c2cccc(Br)c2c1=O [Compound 38, ethyl 5-bromo-1-[2-(difluoromethoxy)-4-pyridyl]-4-oxo-cinnoline-3-carboxylate]
percentage damage caused to the plant, ECHCG [1]: 0 (0=0%)
percentage damage caused to the plant, SETFA (Setaria faberi (SETFA)): 1 (1=10-20%)
percentage damage caused to the plant, IPOHE [3]: 2 (2=21-40%)
percentage damage caused to the plant, AMAPA [4]: 1 (1=10-20%)
percentage damage caused to the plant, AMARE [5]: 2 (2=21-40%)

CCOC(=O)c1nn(-c2cnc(Cl)c(C)c2)c2cccc(Br)c2c1=O [Compound 26, ethyl 5-bromo-1-(6-chloro-5-methyl-3-pyridyl)-4-oxo-cinnoline-3-carboxylate]
percentage damage caused to the plant, ECHCG [1]: 0 (0=0%)
percentage damage caused to the plant, SETFA (Setaria faberi (SETFA)): 1 (1=10-20%)
percentage damage caused to the plant, IPOHE [3]: 2 (2=21-40%)
percentage damage caused to the plant, AMAPA [4]: 1 (1=10-20%)
percentage damage caused to the plant, AMARE [5]: 2 (2=21-40%)
percentage damage caused to the plant, AMARE [6]: 1 (1=10-20%)
percentage damage caused to the plant, AMAPA [7]: 1 (1=10-20%)
percentage damage caused to the plant, ZEAMX (Zea mays (ZEAMX) [8]): 0 (0=0%)
percentage damage caused to the plant, ECHCG [9]: 0 (0=0%)
percentage damage caused to the plant, IPOHE [10]: 0 (0=0%)

CCOC(=O)c1nn(-c2ccc(OC)nc2)c2cccc(Br)c2c1=O [Compound 4, ethyl 5-bromo-1-(6-methoxy-3-pyridyl)-4-oxo-cinnoline-3-carboxylate]
percentage damage caused to the plant, ECHCG [1]: 0 (0=0%)
percentage damage caused to the plant, SETFA (Setaria faberi (SETFA)): 0 (0=0%)
percentage damage caused to the plant, ZEAMX (Zea mays (ZEAMX) [2]): 0 (0=0%)
percentage damage caused to the plant, IPOHE [3]: 0 (0=0%)
percentage damage caused to the plant, AMAPA [4]: 1 (1=10-20%)
percentage damage caused to the plant, AMARE [5]: 2 (2=21-40%)

CCOC(=O)c1nn(-c2cnc(OC)c(F)c2)c2cccc(Br)c2c1=O [Compound 22, ethyl 5-bromo-1-(5-fluoro-6-methoxy-3-pyridyl)-4-oxo-cinnoline-3-carbox-ylate]
percentage damage caused to the plant, ECHCG [1]: 0 (0=0%)
percentage damage caused to the plant, SETFA (Setaria faberi (SETFA)): 0 (0=0%)
percentage damage caused to the plant, ZEAMX (Zea mays (ZEAMX) [2]): 0 (0=0%)
percentage damage caused to the plant, IPOHE [3]: 0 (0=0%)
percentage damage caused to the plant, AMAPA [4]: 0 (0=0%)
percentage damage caused to the plant, AMARE [5]: 0 (0=0%)

CCOC(=O)c1nn(-c2ccc(F)nc2)c2cccc(C#N)c2c1=O [Compound 11, ethyl 5-cyano-1-(6-fluoro-3-pyridyl)-4-oxo-cinnoline-3-carboxylate]
percentage damage caused to the plant, ECHCG [1]: 2 (2=21-40%)
percentage damage caused to the plant, SETFA (Setaria faberi (SETFA)): 0 (0=0%)
percentage damage caused to the plant, ZEAMX (Zea mays (ZEAMX) [2]): 1 (1=10-20%)
percentage damage caused to the plant, IPOHE [3]: 0 (0=0%)
percentage damage caused to the plant, AMAPA [4]: 0 (0=0%)
percentage damage caused to the plant, AMARE [5]: 0 (0=0%)

CCOC(=O)c1nn(-c2ccnc(OC(F)F)c2)c2cccc(C(C)=O)c2c1=O [Compound 40, ethyl 5-acetyl-1-[2-(difluoromethoxy)-4-pyridyl]-4-oxo-cinnoline-3-carboxylate]
percentage damage caused to the plant, ECHCG [1]: 4 (4=61-80%)
percentage damage caused to the plant, SETFA (Setaria faberi (SETFA)): 1 (1=10-20%)
percentage damage caused to the plant, IPOHE [3]: 1 (1=10-20%)
percentage damage caused to the plant, AMAPA [4]: 0 (0=0%)
percentage damage caused to the plant, AMARE [5]: 1 (1=10-20%)
percentage damage caused to the plant, AMARE [6]: 0 (0=0%)
percentage damage caused to the plant, AMAPA [7]: 0 (0=0%)
percentage damage caused to the plant, ZEAMX (Zea mays (ZEAMX) [8]): 0 (0=0%)
percentage damage caused to the plant, ECHCG [9]: 3 (3=41-60%)
percentage damage caused to the plant, IPOHE [10]: 0 (0=0%)

CCOC(=O)c1nn(-c2cncc(Cl)c2)c2cccc(Br)c2c1=O [Compound 5, ethyl 5-bromo-1-(5-chloro-3-pyridyl)-4-oxo-cinnoline-3-carboxylate]
percentage damage caused to the plant, ECHCG [1]: 2 (2=21-40%)
percentage damage caused to the plant, SETFA (Setaria faberi (SETFA)): 2 (2=21-40%)
percentage damage caused to the plant, ZEAMX (Zea mays (ZEAMX) [2]): 1 (1=10-20%)
percentage damage caused to the plant, IPOHE [3]: 1 (1=10-20%)
percentage damage caused to the plant, AMAPA [4]: 1 (1=10-20%)
percentage damage caused to the plant, AMARE [5]: 1 (1=10-20%)

CCOC(=O)c1nn(-c2ccc(C(F)F)nc2)c2cccc(Br)c2c1=O [Compound 30, ethyl 5-bromo-1-[6-(difluoromethyl)-3-pyridyl]-4-oxo-cinnoline-3-carboxylate]
percentage damage caused to the plant, ECHCG [1]: 4 (4=61-80%)
percentage damage caused to the plant, SETFA (Setaria faberi (SETFA)): 0 (0=0%)
percentage damage caused to the plant, IPOHE [3]: 2 (2=21-40%)
percentage damage caused to the plant, AMAPA [4]: 1 (1=10-20%)
percentage damage caused to the plant, AMARE [5]: 1 (1=10-20%)
percentage damage caused to the plant, AMARE [6]: 0 (0=0%)
percentage damage caused to the plant, AMAPA [7]: 0 (0=0%)
percentage damage caused to the plant, ZEAMX (Zea mays (ZEAMX) [8]): 0 (0=0%)
percentage damage caused to the plant, ECHCG [9]: 2 (2=21-40%)
percentage damage caused to the plant, IPOHE [10]: 0 (0=0%)

CCOC(=O)c1nn(-c2ncc(Cl)cc2C#N)c2cccc(Br)c2c1=O [Compound 33, ethyl 5-bromo-1-(5-chloro-3-cyano-2-pyridyl)-4-oxo-cinnoline-3-carboxylate]
percentage damage caused to the plant, ECHCG [1]: 1 (1=10-20%)
percentage damage caused to the plant, SETFA (Setaria faberi (SETFA)): 1 (1=10-20%)
percentage damage caused to the plant, ZEAMX (Zea mays (ZEAMX) [2]): 0 (0=0%)
percentage damage caused to the plant, IPOHE [3]: 1 (1=10-20%)
percentage damage caused to the plant, AMARE [5]: 0 (0=0%)

CCOC(=O)c1nn(-c2ccnc(OC)c2)c2cccc(Br)c2c1=O [Compound 9, ethyl 5-bromo-1-(2-methoxy-4-pyridyl)-4-oxo-cinnoline-3-carboxylate]
percentage damage caused to the plant, ECHCG [1]: 1 (1=10-20%)
percentage damage caused to the plant, SETFA (Setaria faberi (SETFA)): 0 (0=0%)
percentage damage caused to the plant, ZEAMX (Zea mays (ZEAMX) [2]): 1 (1=10-20%)
percentage damage caused to the plant, IPOHE [3]: 0 (0=0%)
percentage damage caused to the plant, AMAPA [4]: 1 (1=10-20%)
percentage damage caused to the plant, AMARE [5]: 1 (1=10-20%)

CCOC(=O)c1nn(-c2cnc(OC)c(C)c2)c2cccc(Br)c2c1=O [Compound 29, ethyl 5-bromo-1-(6-methoxy-5-methyl-3-pyridyl)-4-oxo-cinnoline-3-carboxylate]
percentage damage caused to the plant, ECHCG [1]: 1 (1=10-20%)
percentage damage caused to the plant, SETFA (Setaria faberi (SETFA)): 0 (0=0%)
percentage damage caused to the plant, IPOHE [3]: 2 (2=21-40%)
percentage damage caused to the plant, AMAPA [4]: 1 (1=10-20%)
percentage damage caused to the plant, AMARE [5]: 2 (2=21-40%)

CCOC(=O)c1nn(-c2cncnc2)c2cccc(Br)c2c1=O [Compound 8, ethyl 5-bromo-4-oxo-1-pyrimidin-5-yl-cinnoline-3-carboxylate]
percentage damage caused to the plant, ECHCG [1]: 0 (0=0%)
percentage damage caused to the plant, SETFA (Setaria faberi (SETFA)): 0 (0=0%)
percentage damage caused to the plant, ZEAMX (Zea mays (ZEAMX) [2]): 0 (0=0%)
percentage damage caused to the plant, IPOHE [3]: 0 (0=0%)
percentage damage caused to the plant, AMAPA [4]: 0 (0=0%)
percentage damage caused to the plant, AMARE [5]: 0 (0=0%)

— US20250313549A1, “HERBICIDAL DERIVATIVES” (SYNGENTA CROP PROTECTION AG, priority 2021, published 2025)
